Reference: US11981669B2, “1,7-naphthyridine derivative and preparation method and use therefor” (CSPC ZHONGQI PHARMACEUTICAL TECHNOLOGY (SHIJIAZHUANG) CO., …, priority 2018, dated 2024)
“And” between values parts separate entries of the source, which are not always exact repeats. Equal entries are not always repeated. Marks after values point to notes of the source that are not given here.

Assays:
erythropoietin = experiment: Expression of erythropoietin in vivo (plasma EPO ELISA after single oral dose); settings: once, plasma 6 hours after administration;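 note: male C57 mice given compound by mouth, five animals per treatment group, with EPO in plasma measured by ELISA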
Method: (2) 30 c57 mice, male, were divided into 6 groups, 5 mice in each treatment group. […] 6 hours after the administration, blood was taken, and plasma was collected for EPO detection with an ELISA kit (R&D Co.).

reticulocytes = experiment: Effect on reticulocytes of normal mice; assay type: in vivo, Balb/c mice; parameters: Reticulocytes (RETIC), average: unit not given here
Method: 72 Balb/c mice, male, were divided into 12 groups, 6 mice in each treatment group. In the positive drug control groups: the mice in the FG-4592 treatment groups were orally administered once, at two doses of 10 mg/kg and 50 mg/kg, and the mice in the rhEPO treatment group was intraperitoneaily injected once, at a dose of 100 IU/kg. The compounds of the present disclosure were all orally administered once at a dose of 10 mg/kg. 72 h after the administration, blood was collected from the orbit of all animals, and subjected to EDTA-K2 anticoagulation. Then reticulocytes (RETIC) were counted with an automatic blood cell analyzer.

HIF-1α = experiment: Expression of HIF-1α protein in Hep3B cells (western blot, grayscale analysis); assay type: cell-based, Human; settings: for fold induction at 30 µM: Homo sapiens, 2 h, compound at 30 μM, 10 μM and 3 μM, read-out: HIF-1α level of the compound of the present disclosure/HIF-1α level of blank control
Method: (§1) A test compound was dissolved in dimethyl sulfoxide into a 100 mM stock solution, and then was diluted with 0.5% FBS-containing DMEM medium into 30 μM, 10 μM and 3 μM for later use. Human liver cancer cells Hep3B were seeded in a six-well plate at a density of 2.25*10^5 cells/well, 2 mL per well. After cultivation overnight, the cells were treated with compounds at different concentrations for 2 h. The proteins were extracted for western blot and further grayscale analysis.

HIF-2α = experiment: Expression of HIF-2α protein in Hep3B cells (western blot, grayscale analysis); assay type: cell-based, Human; settings: for fold induction at 30 µM: Homo sapiens, 2 h, compound at 30 μM, 10 μM and 3 μM, read-out: HIF-2α level of the compound of the present disclosure/HIF-2α level of blank control
Method: as §1

[1] = system: rats with residual kidney; experiment: SD rat residual kidney experiment; assay type: in vivo, SD rats; parameters: Hematocrit / Alanine aminotransferase / Glutamic-oxalacetic transaminase: unit not given here
Method: 79 SD rats were subjected to residual kidney surgery after anesthesia (left kidney was resected, one third of the right kidney was left, and the resected kidney part was weighed to confirm the surgical error). After 4 weeks, 45 surviving rats were subjected to blood cell dection and then assigned according to the HCT value 37 rats in good condition were selected and divided into the following groups: Link-118 (5, 10 mg/kg), Link-121 (5, 10 mg/kg), and FG-4592 (10 mg/kg), 6 rats in each treatment group, and 7 in the model group. 4 rats were assigned to the blank control group. The rats were administered three times each week (administered on Monday, Wednesday, and Friday), for 15 times, and blood was taken 24 hours after the last administration (tested by blood routine, blood biochemistry, hepcidin kit).

CYP1A2 = CYP1A2 (Homo sapiens (Human), UniProt P05177); assay type: in vitro ADME
Text: (§2) The compounds of the present disclosure were subjected to the CYP450 enzyme inhibition assay.

CYP2C19 = CYP2C19 (Homo sapiens (Human), UniProt P33261); experiment: CYP enzyme inhibition assay; assay type: in vitro ADME
Text: as §2

CYP2C9 = CYP2C9 (Homo sapiens (Human), UniProt P11712); experiment: CYP enzyme inhibition assay; assay type: in vitro ADME
Text: as §2

CYP2D6 = CYP2D6 (Homo sapiens (Human), UniProt P10635); experiment: CYP enzyme inhibition assay; assay type: in vitro ADME
Text: as §2

CYP3A4-M = CYP3A4-M (Homo sapiens (Human), UniProt P08684); experiment: CYP enzyme inhibition assay; assay type: in vitro ADME
Text: as §2

hERG channels = hERG channels (Homo sapiens (Human), UniProt Q12809); experiment: cell-based; assay type: cell-based; settings: for Inhibitory effect on hERG current at the highest test concentration: human, 30 μM
Method: Whole-cell patch clamp technique was used to record hERG current. A cell suspension was added to a 35 mm Petri dish, and the dish was then placed on an inverted microscope stage. After the adherence of cells, they were perfused with extracellular fluid at a flow rate of 1-2 mL/min. A glass microelectrode was drawn by a microelectrode puller in two steps, and the pipette tip resistance was between 2-5 MΩ. After establishing the whole cell recording, the clamp potential was held at −80 mV, followed by depolarization to +60 mV when given voltage stimulation and then repolarization to −50 mV to elicit hERG tail current. All recordings were performed after the current was stable. Extracellular perfusion administration started from a low concentration, staying for 5-10 min at each concentration until the current was stable, and then cells were further perfused with the next concentration.

[2] = 10 mg/kg p.o., once, 72 h after administration
[3] = 10 mg/kg, three times each week, 15 times, x ± sd
[4] = compared with the blank control group
[5] = 100 IU/kg i.p., once, 72 h after administration

Sequence of CYP2C9 (P11712 whole entry): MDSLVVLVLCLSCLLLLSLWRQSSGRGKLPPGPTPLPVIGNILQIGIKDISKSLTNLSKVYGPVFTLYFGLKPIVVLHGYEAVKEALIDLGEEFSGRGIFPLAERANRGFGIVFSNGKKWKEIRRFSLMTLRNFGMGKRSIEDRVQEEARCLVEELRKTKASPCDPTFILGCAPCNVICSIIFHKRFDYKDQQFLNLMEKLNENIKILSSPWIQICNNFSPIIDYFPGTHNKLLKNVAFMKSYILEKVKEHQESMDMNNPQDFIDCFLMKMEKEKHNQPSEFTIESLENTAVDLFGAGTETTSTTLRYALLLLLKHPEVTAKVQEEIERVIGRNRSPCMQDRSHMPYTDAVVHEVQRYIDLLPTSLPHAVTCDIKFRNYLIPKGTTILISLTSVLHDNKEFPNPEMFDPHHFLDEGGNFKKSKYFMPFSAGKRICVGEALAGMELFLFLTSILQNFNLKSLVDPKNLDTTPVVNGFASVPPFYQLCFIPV
Sequence of CYP2C19 (P33261 whole entry): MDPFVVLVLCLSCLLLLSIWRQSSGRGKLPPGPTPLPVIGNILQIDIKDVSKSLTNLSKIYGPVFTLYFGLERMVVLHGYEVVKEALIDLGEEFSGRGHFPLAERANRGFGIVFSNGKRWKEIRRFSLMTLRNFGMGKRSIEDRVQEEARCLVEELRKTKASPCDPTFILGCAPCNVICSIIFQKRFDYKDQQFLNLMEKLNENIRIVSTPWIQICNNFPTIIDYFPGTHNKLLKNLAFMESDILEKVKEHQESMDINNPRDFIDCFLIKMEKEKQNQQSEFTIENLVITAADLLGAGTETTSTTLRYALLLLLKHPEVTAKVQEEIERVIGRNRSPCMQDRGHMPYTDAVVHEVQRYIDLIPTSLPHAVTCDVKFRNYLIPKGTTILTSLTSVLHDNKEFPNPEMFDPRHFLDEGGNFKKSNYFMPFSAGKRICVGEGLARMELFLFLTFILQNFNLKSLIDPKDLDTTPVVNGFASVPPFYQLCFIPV
Sequence of CYP2D6 (P10635 whole entry): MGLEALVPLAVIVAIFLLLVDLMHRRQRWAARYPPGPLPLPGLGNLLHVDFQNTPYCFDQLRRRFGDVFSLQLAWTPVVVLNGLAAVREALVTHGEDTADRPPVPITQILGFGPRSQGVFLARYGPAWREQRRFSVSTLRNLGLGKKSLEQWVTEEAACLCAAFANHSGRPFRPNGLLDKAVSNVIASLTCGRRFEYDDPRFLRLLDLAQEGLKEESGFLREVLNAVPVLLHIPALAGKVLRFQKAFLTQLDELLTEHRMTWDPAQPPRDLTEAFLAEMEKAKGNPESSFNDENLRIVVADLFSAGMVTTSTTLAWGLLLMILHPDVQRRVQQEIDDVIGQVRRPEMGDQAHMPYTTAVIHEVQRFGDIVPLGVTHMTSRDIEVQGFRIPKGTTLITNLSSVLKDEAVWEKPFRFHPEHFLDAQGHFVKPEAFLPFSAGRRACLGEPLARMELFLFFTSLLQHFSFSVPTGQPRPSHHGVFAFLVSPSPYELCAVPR
Sequence of hERG channels (Q12809 whole entry, the tested form may be a part): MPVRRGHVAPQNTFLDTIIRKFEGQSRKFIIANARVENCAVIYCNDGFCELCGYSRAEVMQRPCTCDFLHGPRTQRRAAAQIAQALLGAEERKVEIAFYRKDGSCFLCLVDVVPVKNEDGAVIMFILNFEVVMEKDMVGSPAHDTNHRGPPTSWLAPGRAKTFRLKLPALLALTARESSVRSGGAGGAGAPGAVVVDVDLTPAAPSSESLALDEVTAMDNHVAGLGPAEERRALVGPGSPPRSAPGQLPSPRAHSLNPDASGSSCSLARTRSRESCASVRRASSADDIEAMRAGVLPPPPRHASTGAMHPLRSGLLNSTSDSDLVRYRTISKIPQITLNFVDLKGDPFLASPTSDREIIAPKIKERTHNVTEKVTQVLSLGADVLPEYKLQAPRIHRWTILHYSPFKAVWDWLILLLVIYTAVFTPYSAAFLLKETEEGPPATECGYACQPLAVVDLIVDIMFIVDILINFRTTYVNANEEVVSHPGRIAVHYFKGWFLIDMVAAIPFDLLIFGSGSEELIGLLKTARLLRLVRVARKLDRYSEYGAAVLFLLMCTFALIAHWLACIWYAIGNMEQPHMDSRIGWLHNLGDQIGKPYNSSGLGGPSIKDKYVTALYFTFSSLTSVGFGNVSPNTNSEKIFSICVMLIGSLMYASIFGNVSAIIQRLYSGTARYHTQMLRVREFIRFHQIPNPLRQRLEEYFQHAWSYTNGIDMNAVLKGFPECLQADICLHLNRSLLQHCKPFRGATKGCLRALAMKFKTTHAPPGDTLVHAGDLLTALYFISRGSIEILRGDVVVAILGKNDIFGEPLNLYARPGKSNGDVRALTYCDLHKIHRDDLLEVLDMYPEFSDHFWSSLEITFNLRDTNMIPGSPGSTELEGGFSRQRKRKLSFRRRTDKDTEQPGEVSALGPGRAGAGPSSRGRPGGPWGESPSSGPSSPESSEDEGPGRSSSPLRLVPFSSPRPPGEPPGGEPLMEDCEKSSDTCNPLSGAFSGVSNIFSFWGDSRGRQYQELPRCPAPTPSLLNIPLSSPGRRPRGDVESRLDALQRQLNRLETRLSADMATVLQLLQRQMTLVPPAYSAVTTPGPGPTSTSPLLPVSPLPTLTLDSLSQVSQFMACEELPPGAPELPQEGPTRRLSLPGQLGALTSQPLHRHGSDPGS
Sequence of CYP1A2 (P05177 whole entry): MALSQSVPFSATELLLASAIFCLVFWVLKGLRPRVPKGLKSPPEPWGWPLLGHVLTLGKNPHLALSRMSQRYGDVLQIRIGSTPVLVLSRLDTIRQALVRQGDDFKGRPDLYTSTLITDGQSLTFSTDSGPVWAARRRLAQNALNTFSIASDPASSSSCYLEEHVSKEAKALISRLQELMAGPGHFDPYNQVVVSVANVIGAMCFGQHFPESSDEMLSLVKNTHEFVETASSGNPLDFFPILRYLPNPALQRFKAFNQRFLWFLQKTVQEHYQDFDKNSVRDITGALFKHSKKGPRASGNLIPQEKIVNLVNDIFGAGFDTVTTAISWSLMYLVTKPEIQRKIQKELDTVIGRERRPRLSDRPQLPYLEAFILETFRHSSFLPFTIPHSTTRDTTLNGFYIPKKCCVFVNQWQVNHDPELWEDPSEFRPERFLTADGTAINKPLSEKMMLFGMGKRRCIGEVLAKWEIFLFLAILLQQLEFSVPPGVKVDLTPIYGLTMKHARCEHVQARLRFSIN
Sequence of CYP3A4-M (P08684 whole entry): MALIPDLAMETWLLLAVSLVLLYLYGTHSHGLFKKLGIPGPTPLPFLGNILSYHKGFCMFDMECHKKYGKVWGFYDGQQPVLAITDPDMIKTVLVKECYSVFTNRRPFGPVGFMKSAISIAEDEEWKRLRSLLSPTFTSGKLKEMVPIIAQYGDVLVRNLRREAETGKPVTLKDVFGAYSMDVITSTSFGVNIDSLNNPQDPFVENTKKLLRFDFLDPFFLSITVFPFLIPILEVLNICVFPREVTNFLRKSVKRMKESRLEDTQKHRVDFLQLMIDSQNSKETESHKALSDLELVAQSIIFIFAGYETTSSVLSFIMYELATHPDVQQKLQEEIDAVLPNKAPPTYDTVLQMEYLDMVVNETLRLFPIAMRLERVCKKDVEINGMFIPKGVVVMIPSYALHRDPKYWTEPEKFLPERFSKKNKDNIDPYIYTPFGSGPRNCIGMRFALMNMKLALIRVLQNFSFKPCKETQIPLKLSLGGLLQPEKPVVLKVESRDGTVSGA

Molecule	EPO OD value (erythropoietin; 10 mg/kg)	EPO OD value (erythropoietin; 50 mg/kg)	Reticulocytes (RETIC), average (reticulocytes; [2])	fold induction at 30 µM (HIF-1α)	fold induction at 30 µM (HIF-2α)	IC50 (CYP1A2)	IC50 (CYP2C19)	IC50 (CYP2C9)	IC50 (CYP2D6)	IC50 (CYP3A4-M)	IC50 (hERG channels)	Inhibitory effect on hERG current at the highest test concentration (hERG channels)	also measured
O=c1c(-n2ccnn2)c[nH]n1-c1cc(N2CCOCC2)ncn1 [BAY85-3934, reference compound]	B (B represents 1.5<EPO OD value<2)	D (D represents EPO OD value>3)											
Cc1nc(C(=O)NCC(=O)O)c(O)c2ccc(Oc3ccccc3)cc12 [FG-4592, reference compound]	A (A represents 1.0<EPO OD value<1.5)	A (A represents 1.0<EPO OD value<1.5)	4.73	8.5 to 10	8.5 to 10								Reticulocytes (RETIC), average (reticulocytes; 50 mg/kg p.o., once, 72 h after administration): 7.42; Reticulocyte counts compared with normal animals (reticulocytes; 72 h after single administration, FG4592 statement at 10 mg/kg): no significant difference from normal animals; Red blood cells ([1]; 10 mg/kg, three times each week, 15 times, blood 24 hours after last administration, x ± sd): 8.26 ± 0.41** 10^12/L; Alanine aminotransferase [1, 3]: 40.4 ± 3.58; Glutamic-oxalacetic transaminase [1, 3]: 11620 ± 10.96; Hematocrit [1, 3]: 47.7 ± 2.19; Hemoglobin [1, 3]: 16720 ± 8.47 g/L; Hepcidin [1, 3]: 2.59 ± 0.7015 ng/mL; Effect on glutamic-oxalacetic transaminase [1, 4]: no significant effect; Effect on liver glutamic-pyruvic aminotransferase [1, 4]: no significant effect; Effect on HCT in rats with residual kidney ([1]; compared with the model group): significantly increase; Effect on HGB in rats with residual kidney ([1]; compared with the model group): significantly increase; Effect on RBC in rats with residual kidney ([1]; compared with the model group): significantly increase; Effect on hepcidin in rats with residual kidney ([1]; compared with the model group): significantly inhibit
COc1ccc(Oc2ccc3c(O)c(C(=O)NCC(=O)O)nc(Cl)c3n2)cc1 [Link-119, 2-(2-(4-methoxyphenoxy)-5-hydroxy-8-chloro-1,7-naphthyridine-6-formamido) Acetic Acid]	A (A represents 1.0<EPO OD value<1.5)	A (A represents 1.0<EPO OD value<1.5)											
O=C(O)CNC(=O)c1nc(Cl)c2nc(Oc3cccnc3)ccc2c1O [Link-120, 2-(2-(pyrid-3-yloxy)-5-hydroxy-8-chloro-1,7-naphthyridine-6-formamido) Acetic Acid]	A (A represents 1.0<EPO OD value<1.5)	A (A represents 1.0<EPO OD value<1.5)											
O=C(O)CNC(=O)c1nc(Cl)c2nc(Cl)ccc2c1O [Link-122, 2-(2,8-dichloro-5-hydroxy-1,7-naphthyridine-6-formamido) acetic acid]	A (A represents 1.0<EPO OD value<1.5)	B (B represents 1.5<EPO OD value<2)											
O=C(O)CNC(=O)c1nc(Br)c2nc(Oc3ccccc3Cl)ccc2c1O [Link-125, 2-(2-(2-chlorophenoxy)-5-hydroxy-8-bromo-1,7-naphthyridine-6-formamido) Acetic Acid]	A (A represents 1.0<EPO OD value<1.5)	D (D represents EPO OD value>3)	5.62	4.5 to 8.5	1 to 4.5	> 50 µM	> 50 µM	> 50 µM	> 50 µM	> 50 µM	> 30 µM	far from the IC50 value	HIF-1α protein expression compared with blank control (HIF-1α): higher than that of the blank control; HIF-2α protein expression compared with blank control (HIF-2α): higher than that of the blank control
O=C(O)CNC(=O)c1nc(Cl)c2nc(Oc3cccc(Cl)c3)ccc2c1O [Link-126, 2-(2-(3-chlorophenoxy)-5-hydroxy-8-chloro-1,7-naphthyridine-6-formamido) Acetic Acid]	A (A represents 1.0<EPO OD value<1.5)	D (D represents EPO OD value>3)	5.87			> 50 µM	> 50 µM	> 50 µM	> 50 µM	> 50 µM	> 30 µM	far from the IC50 value	
O=C(O)CNC(=O)c1nc(Br)c2nc(Oc3cccc(Cl)c3)ccc2c1O [Link-127, 2-(2-(3-chlorophenoxy)-5-hydroxy-8-bromo-1,7-naphthyridine-6-formamido) Acetic Acid]	A (A represents 1.0<EPO OD value<1.5)	D (D represents EPO OD value>3)	5.63			37.9 µM	> 50 µM	> 50 µM	> 50 µM	> 50 µM	> 30 µM	far from the IC50 value	
O=C(O)CNC(=O)c1nc(Cl)c2nc(Oc3ccc(Cl)cc3)ccc2c1O [Link-128, 2-(2-(4-chlorophenoxy)-5-hydroxy-8-chloro-1,7-naphthyridine-6-formamido) Acetic Acid]	A (A represents 1.0<EPO OD value<1.5)	D (D represents EPO OD value>3)	6.15			> 50 µM	> 50 µM	> 50 µM	> 50 µM	> 50 µM	> 30 µM	far from the IC50 value	
O=C(O)CNC(=O)c1nc(Br)c2nc(Oc3ccc(F)cc3)ccc2c1O [Link-131, 2-(2-(4-fluorophenoxy)-5-hydroxy-8-bromo-1,7-naphthyridine-6-formamido) Acetic Acid]	A (A represents 1.0<EPO OD value<1.5)	A (A represents 1.0<EPO OD value<1.5)		4.5 to 8.5	4.5 to 8.5								HIF-1α protein expression compared with blank control (HIF-1α): higher than that of the blank control; HIF-2α protein expression compared with blank control (HIF-2α): higher than that of the blank control
CCOc1ccc2c(O)c(C(=O)NCC(=O)O)nc(Cl)c2n1 [Link-134, 2-(2-ethoxy-5-hydroxy-8-chloro-1,7-naphthyridine-6-formamido) Acetic Acid]	A (A represents 1.0<EPO OD value<1.5)	A (A represents 1.0<EPO OD value<1.5)		1 to 4.5	1 to 4.5								HIF-1α protein expression compared with blank control (HIF-1α): higher than that of the blank control; HIF-2α protein expression compared with blank control (HIF-2α): higher than that of the blank control
CC(C)(C)C(=O)OCOC(=O)CNC(=O)c1nc(Cl)c2nc(Oc3ccccc3)ccc2c1O [Link-135, methyl (2-(2-phenoxy-5-hydroxy-8-chloro-1,7-naphthyridine-6-formamido)acetoxy) pivalate]	B (B represents 1.5<EPO OD value<2)	B (B represents 1.5<EPO OD value<2)											
rhEPO: positive drug control, intraperitoneally injected once at 100 IU/kg													Reticulocytes (RETIC), average (reticulocytes; [5]): 6.58; Reticulocytes (RETIC), individual animals No. 1-6 (reticulocytes; [5]): 5.9 (2×) and 6.6 (2×) and 7.1 and 7.4
